Key:
[1] = test system: mice on HFD (established obesity); test: Basimglurant-High Fat Diet (HFD) treatment study; assay type: in vivo; conditions: obese mice
Experimental: Basimglurant-High Fat Diet (HFD) treatment study: At 12 weeks of age, mice (n=30) were placed on a HFD with 43% of calories from fat (23.5% by weight; SF04-001 High Fat Rodent Diet Based on D12451, Specialty Feeds, Glen Forrest, Wash.). After 13 weeks of the diet period, echocardiography was performed on all mice to obtain pre-drug treatment measures of cardiac function. Mice were allocated to treatment groups so that measures of cardiac function and morphology were matched as best as possible. Basimglurant (MedChemExpress) was resuspended in 100% DMSO before being diluted in a hydroxypropyl cellulose solution to give a final solution containing 0.25 mg/mL Basimglurant in 10% hydroxypropyl cellulose and 5% DMSO. A vehicle solution containing 10% hydroxypropyl cellulose and 5% DMSO was also made. Aliquots of both drug and vehicle were stored at −80° C. until required. The HFD/Basimglurant group was administered 1 mg/kg of Basimglurant per day by oral gavage, while the HFD/control group received an equivalent volume of vehicle. Echocardiography was then performed following 4 weeks of the treatment period to obtain post-drug treatment measures of cardiac function. Following 5 weeks of the drug administration, mice were humanely killed via cervical dislocation and blood was immediately obtained via cardiac puncture and stored in a heparinised tube. […]

Male C57BL6 mice [2] = test: Aβ42 and mGluR5 NAM administration study; assay type: in vivo; conditions: Basimglurant 1 mg/kg oral gavage or vehicle plus Aβ42 i.p. once/day; for plasma Aβ42 compared with the ScrAβ42+Veh group: FIG. 9A; for Peak E wave compared with the ScrAβ42+Veh group: FIG. 9B
Experimental: Basimglurant (MedChemExpress) was resuspended in 100% DMSO before being diluted in a hydroxypropyl cellulose solution to give a final solution containing 0.25 mg/mL Basimglurant in 10% hydroxypropyl cellulose and 5% DMSO. A vehicle solution containing 10% hydroxypropyl cellulose and 5% DMSO was also made. Aliquots of both drug and vehicle were stored at −80° C. until required. Male C57BL6 mice were obtained from the Animal Resource Centre (Perth, Wash.) at 4 weeks of age and housed with 4 mice per cage on a 12 hr light/dark cycle at a temperature of 22° C. and a constant humidity with a normal rodent diet. At 12 weeks of age, mice were grouped according to body mass and composition, determined by EchoMRI. […] After 4 weeks of drug and peptide administration, cardiac function was assessed by echocardiography as follows. Mice were anaesthetised with inhalation of 1.5% isoflurane anaesthesia and echocardiography was performed using the Phillips HD15 diagnostic ultrasound system with a 15 MHz linear-array transducer by an experienced veterinarian. The velocity of blood flow through the mitral valve was analysed using Doppler mode imaging. […] Doppler imaging was also utilised to measure the velocity of blood flow through the aortic valve. The measurements were then used to calculate the ejection time (LVET), peak aortic flow and heart rate. M-mode imaging of the left ventricle was used to measure the thickness of the inter-ventricular septum (IVS), left ventricular internal diameter (LVID) and left ventricular posterior wall (LVPW) in both diastole (d) and end-systole (s) as well as systolic measures such as ejection fraction and fractional shortening. An estimation of LV mass was calculated from the m-mode imaging by using the formula (1.05[LVIDd+LVPWd+IVSd]^3−[LVIDd]^3) by Troy et al. (1972). The myocardial performance index (MPI), a global index of both diastolic and systolic cardiac function, was calculated using the formula ([IVCT+IVRT]/LVET), by Tei et al. (1995). Mice were humanely killed by cervical dislocation 1 week later. Blood was obtained immediately following by cardiac puncture and the heart, and other tissues were immediately removed. Hearts were washed in ice cold PBS and weighed prior to being snap frozen in liquid nitrogen.

[3] = test system: Primary mouse neonatal ventricular cardiomyocytes; test: Neonatal ventricular cardiomyocyte experiments, antagonist studies (gene expression); assay type: cell-based; conditions: 10 uM, cardiomyocytes exposed to Aβ42, FIG. 6B
Experimental: Total mRNA from the tissues was extracted by homogenizing ˜20-30 milligrams of tissue in 1 ml of Trizol followed by incubation at room temperature (RT) for 5 min. 200 μL of chloroform was added to the homogenate, shaken for 15 seconds and incubated for 1 min at RT before centrifuging at 12,000 g for 10 min at 4° C. for extracting the upper aqueous phase. An equal volume (350 μl for cell lysate/450 μL for tissue) of 70% ethanol was added to cell/tissue samples and they were further purified with RNeasy spin columns (the RNeasy®min i Kit, Qiagen). Complementary DNA (cDNA) was synthesised using the SuperScript™ III transcription system (Invitrogen). cDNA was quantified by OliGreen assay (Quant-iT™ OliGreen® ssDNA Assay Kit; Invitrogen). All primers were designed in-house using the Beacon Primer Designer program software and synthesised by Gene Works (Adelaide, Australia). […] Gene expression levels were quantified using the FastStart Universal SYBR Green Master (ROX; Roche Applied-Science) on the MX3005P™ Multiplex Quantitative PCR (QPCR) system (Stratagene). […]
Neonatal ventricular cardiomyocyte experiments: Primary mouse neonatal ventricular cardiomyocytes were isolated from one day old neonate mice. […] 48 hr after infection, cells were harvested and homogenized in protein lysis buffer, total protein concentration was determined and western blotting was performed, as described above. […]

Male C57BL6 mice [4] = test: Aβ40 administration study; assay type: in vivo; set-up: dose or concentration left out as unconfirmed; conditions: i.p. for 5 weeks vs ScrAβ40, FIG. 11A
Experimental: Aβ40 administration study: Lyophilised recombinant Aβ40 (Millipore) and scrambled control peptide (ScrAβ40; Millipore) were resuspended in 1% NH4OH and aliquoted at 200 ng/ml in H2O and stored at −80° C. for no longer than 4 weeks. Male C57BL6 mice were obtained from the Animal Resource Centre (Perth, Wash.) at 4 weeks of age and housed with 4 mice per cage on a 12 hr light/dark cycle at a temperature of 22° C. and a constant humidity with a normal rodent diet. At 12 weeks of age, mice were grouped according to body mass and composition, determined by EchoMRI. […] After 4 weeks of peptide administration, cardiac function was assessed by echocardiography as follows. Mice were anaesthetised with inhalation of 1.5% isoflurane anaesthesia and echocardiography was performed using the Phillips HD15 diagnostic ultrasound system with a 15 MHz linear-array transducer by an experienced veterinarian. The velocity of blood flow through the mitral valve was analysed using Doppler mode imaging. […] Doppler imaging was also utilised to measure the velocity of blood flow through the aortic valve. […] An estimation of LV mass was calculated from the m-mode imaging by using the formula (1.05 [LVIDd+LVPWd+IVSd]^3−[LVIDd]^3) by Troy et al. (1972). […] Plasma […] was measured using a high sensitivity ELISA kit (Wako Diagnostics) and plasma that was diluted 1:10 with assay buffer.

Male C57BL6 mice [5] = test: Aβ42 administration study: heart gene expression and western blotting (NLRP3 inflammasome, PKD); assay type: in vivo; conditions: chronic administration
Experimental: Total mRNA from the tissues was extracted by homogenizing ˜20-30 milligrams of tissue in 1 ml of Trizol followed by incubation at room temperature (RT) for 5 min. 200 μL of chloroform was added to the homogenate, shaken for 15 seconds and incubated for 1 min at RT before centrifuging at 12,000 g for 10 min at 4° C. for extracting the upper aqueous phase. An equal volume (350 μl for cell lysate/450 μL for tissue) of 70% ethanol was added to cell/tissue samples and they were further purified with RNeasy spin columns (the RNeasy®min i Kit, Qiagen). Complementary DNA (cDNA) was synthesised using the SuperScript™ III transcription system (Invitrogen). cDNA was quantified by OliGreen assay (Quant-iT™ OliGreen® ssDNA Assay Kit; Invitrogen). All primers were designed in-house using the Beacon Primer Designer program software and synthesised by Gene Works (Adelaide, Australia). Primer sequence efficiency was tested over a wide concentration range. Gene expression levels were quantified using the FastStart Universal SYBR Green Master (ROX; Roche Applied-Science) on the MX3005P™ Multiplex Quantitative PCR (QPCR) system (Stratagene). Log-transformed CT values were normalised to cDNA concentration to determine relative gene expression levels.
Approximately 20 mg of ventricle tissue was homogenised in ice-cold lysis buffer (50 mM Tris pH7.5, 1 mM EDTA, 1 mM EGTA, 10% glycerol, 1% triton X-100, 50 mM NaF, 5 mM Na4P2O7, 1 mM Na3VO4, 1 mM DTT, protease inhibitor cocktail) and protein content was determined using the BCA method. […] Blocked membranes were exposed to primary antibodies towards pro-caspase-1, mature caspase 1, total PKD, PKD phosphorylated at ser744 and 748 (Cell Signalling Technology, Danvers, USA) and α-tubulin (Sigma-Aldrich, St. Louis, USA). Membranes were visualised and bands quantified by using the ChemiDoc™ XRS+ with Image Lab™ software.

Male C57BL6 mice [6] = test: Aβ42 administration study: GTT with glucose tracers, cardiac metabolism; assay type: in vivo
Experimental: Male C57BL6 mice were obtained from the Animal Resource Centre (Perth, Wash.) at 4 weeks of age and housed with 4 mice per cage on a 12 hr light/dark cycle at a temperature of 22° C. and a constant humidity with a normal rodent diet. At 12 weeks of age, mice were grouped according to body mass and composition, determined by EchoMRI. […] An i.p. glucose tolerance test (GTT) was performed on the final treatment day following an overnight fast. Mice were administered 2 g/kg lean mass of glucose including radioactive glucose tracers, prepared as follows. 100 μl of 1 μCi/μ1 glucose analogue, [^3H]-2-deoxyglucose (2-DOG), and 500 μl of 200 μCi/mL U-^14C glucose were evaporated to dryness before redissolving the radioactive tracers in 1 mL of 50% glucose. This produced a 50% glucose solution containing 100 μCi/mL [^3H]-2-DOG and 100 μCi/mL U-^14C glucose. The tail tip of each mouse was cut off and the blood glucose concentration of a blood sample was measured using an AccuCheck II glucometer (Roche). The GTT was initiated via intraperitoneal injection of the radiolabelled glucose solution (2 g/kg body weight, 10 uCi/animal) into the overnight-fasted mice. Further blood samples were taken at 15, 30, 45, 60 and 90 minutes after the injection for the measurement of blood glucose. Blood samples (30 μl) were also taken from the tail tip at each time point and diluted in 100 μl of saline. These samples were then centrifuged and the supernatant collected. 50 μl of the supernatant was diluted in 500 μl of distilled water and then suspended in 4 mL of Ultima Gold XR scintillation fluid (Packard Bioscience). Blood radioactivity was determined at each time point by performing liquid scintillation counting on each solution using the Beckman scintillation counter (LS6000 SC). At the conclusion of the GTT, mice were killed via cervical dislocation. Blood was obtained immediately following by cardiac puncture and the heart, and other tissues were immediately removed. Hearts were washed in ice cold PBS and weighed prior to being snap frozen in liquid nitrogen. The heart (30 mg), epididymal fat pad (30 mg and quadriceps skeletal muscle (30 mg) were homogenised in 1.5 ml of distilled water. The homogenate was centrifuged at 3000 rpm for 10 min at 4° C. 400 μl of the supernatant was diluted into 1.6 mL of distilled water and then suspended in 14 mL of Ultima Gold XR scintillation fluid (Packard Bioscience). The radioactivity of each sample (from both [^3H]-2-DOG6P and [^3H]-2-DOG) was determined by liquid scintillation counting using the Beckman scintillation counter (LS6000 SC).
The ^3H radioactivity was used to measure glucose uptake into each tissue.
To determine the incorporation of U-^14C glucose into triglyceride and the total triglyceride content in the heart, an extraction of triglyceride was carried out using a chloroform/methanol mixture. Samples of heart (30 mg) were hand-homogenised in 2 mL of chloroform/methanol (2:1) and the homogeniser rinsed in a further 2 mL of chloroform/methanol (2:1), and the washings being added to the original extract in 10 mL tubes. The tubes were tightly capped and mixed on a rotator overnight to maximise extraction of the triglycerides. […] The amount of U-^14C glucose clearance into the lipid fraction was measured by suspending 100 μl of the triglyceride solution in 5 mL of Ultima Gold XR scintillation fluid (Packard Bioscience), followed by scintillation counting using the Beckman scintillation counter (LS6000 SC).

Male C57BL6 mice [7] = test: Aβ42 administration study: cardiac function by echocardiography; assay type: in vivo
Experimental: After 4 weeks of peptide administration, cardiac function was assessed by echocardiography as follows. Mice were anaesthetised with inhalation of 1.5% isoflurane anaesthesia and echocardiography was performed using the Phillips HD15 diagnostic ultrasound system with a 15 MHz linear-array transducer by an experienced veterinarian. The velocity of blood flow through the mitral valve was analysed using Doppler mode imaging. […] Doppler imaging was also utilised to measure the velocity of blood flow through the aortic valve. The measurements were then used to calculate the ejection time, peak aortic flow and heart rate. M-mode imaging of the left ventricle was used to measure the thickness of the inter-ventricular septum (IVS), left ventricular internal diameter (LVID) and left ventricular posterior wall (LVPW) in both diastole (d) and end-systole (s) as well as systolic measures such as ejection fraction and fractional shortening. An estimation of LV mass was calculated from the m-mode imaging by using the formula (1.05[LVIDd+LVPWd+IVSd]^3−[LVIDd]^3) by Troy et al. (1972). Mice were humanely killed by cervical dislocation 1 week later. Blood was obtained immediately following by cardiac puncture and the heart, and other tissues were immediately removed. Hearts were washed in ice cold PBS and weighed prior to being snap frozen in liquid nitrogen.

With `Cc1nc(C#Cc2ccnc(Cl)c2)c(C)n1-c1ccc(F)cc1` [Basimglurant] the DT after treatment ([1]; 13 weeks HFD then 4 weeks daily 1 mg/kg oral gavage, FIG. 12A) was 100 % of baseline levels, the “plasma Aβ42 levels” value ([1]; daily 1 mg/kg oral gavage, FIG. 12B) was “did not have any effect” and the “plasma Aβ42 compared with the ScrAβ42+Veh group” value (Male C57BL6 mice [2]) was “significantly increased”. For the same molecule, the “Peak E wave compared with the ScrAβ42+Veh group” value (Male C57BL6 mice [2]; echocardiography after 4 weeks) was “reduced in the Aβ42+Veh group, but not in the Aβ42+Basimglurant groups” and the “myocardial performance index (MPI) compared with the ScrAβ42+Veh group” value (Male C57BL6 mice [2]; echocardiography after 4 weeks, FIG. 9C) was “increased in the Aβ42+Veh group, but not in the Aβ42+Basimglurant groups”.
In the case of `O=C1NCCCc2c1oc1ccc(O)cc21` [CID755673], the “Aβ42-induced increase in inflammatory gene expression” value [3] is reported as “prevented”.
For “Aβ40: Lyophilised recombinant Aβ40 (Millipore), amyloid beta peptide”, the “plasma Aβ40” value (Male C57BL6 mice [4]) was “significantly increased”.
With “Aβ42: Lyophilised recombinant Aβ42 (Millipore), amyloid beta peptide of 42 amino acids” the “phosphorylation of PKD at ser744 and 748” value (Male C57BL6 mice [5]; FIG. 6A) was “increased”, the “expression of genes associated with priming of the NLRP3 inflammasome (Nlrp3, Ifna, Il18)” value (Male C57BL6 mice [5]; heart, FIG. 5A) was “increased” and the “mature caspase 1” value (Male C57BL6 mice [5]; western blot, FIG. 5B) was “increased”. The “pro-caspase 1” value (Male C57BL6 mice [5]; western blot, FIG. 5B) was “increased”, the “whole body glucose tolerance or plasma insulin throughout the GTT” value (Male C57BL6 mice [6]; after five weeks of peptide, vs ScrAβ42) was “no difference” and the “glucose incorporation into TAG (14C-glucose labelling)” value (Male C57BL6 mice [6]; heart, FIG. 1C) was “greater”. For the same molecule, the “total TAG” value (Male C57BL6 mice [6]; heart, FIG. 1D) was “increased”, the “cardiac gene expression (inflammation, endoplasmic reticulum stress)” value (Male C57BL6 mice [6]; heart, FIG. 1E) was “gene expression changes indicative of cardiac stress responses” and the “increase in plasma Aβ42 compared with administration of ScrAβ42” value (Male C57BL6 mice [6]; i.p. 1 μg/day for five weeks, FIG. 1A) was “approximately 3 fold”. The deceleration time (Male C57BL6 mice [7]; echocardiography, vs ScrAβ42, FIG. 2D) was “increased”, the “E normalised by isovolumetric relaxation time (IVRT)” value (Male C57BL6 mice [7]; echocardiography, vs ScrAβ42, FIG. 2E) was “no significant difference” and the fractional shortening (Male C57BL6 mice [7]; echocardiography, vs ScrAβ42, FIG. 2F) was “reduced”. For the same molecule, the ejection fraction (Male C57BL6 mice [7]; echocardiography, vs ScrAβ42, FIG. 2G) was “reduced”, the gross heart weight (Male C57BL6 mice [7]; five weeks of peptide vs ScrAβ42, FIG. 2A) was “no effect” and the “internal dimensions of the left ventricle (LVIDd)” value (Male C57BL6 mice [7]; five weeks of peptide vs ScrAβ42, FIG. 2B) was “no effect”. For the same molecule, the “plasma Aβ42 compared with the ScrAβ42+Veh group” value (Male C57BL6 mice [2]) was “elevated” and the “Peak E wave compared with the ScrAβ42+Veh group” value (Male C57BL6 mice [2]; echocardiography after 4 weeks) was “reduced”.

Reference: patent publication US20230028659A1, “THERAPEUTIC COMPOSITIONS AND METHODS FOR PREVENTION AND TREATMENT OF DIASTOLIC DYSFUNCTION” (AMBETEX PTY LTD, priority 2019, published 2023)
